Target: unphosphorylated-BTK kinase domain (UP-BTK), GST-tagged human BTK (389-659aa) (Homo sapiens (Human), UniProt Q06187)
Experiment: BTK kinase Lanthascreen binding assay
Details: Lanthascreen tracer competition, 60 minutes incubation, pIC50 = negative log of the IC50 in molar
How it was run: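 A fluorescent tracer is bound to unphosphorylated BTK; test compound is added to compete it off; the Lanthascreen signal is read and IC50 is fitted, then reported as its negative log in molar.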

unphosphorylated-BTK kinase domain (UP-BTK), GST-tagged human BTK (389-659aa), sequence (Q06187 389-659): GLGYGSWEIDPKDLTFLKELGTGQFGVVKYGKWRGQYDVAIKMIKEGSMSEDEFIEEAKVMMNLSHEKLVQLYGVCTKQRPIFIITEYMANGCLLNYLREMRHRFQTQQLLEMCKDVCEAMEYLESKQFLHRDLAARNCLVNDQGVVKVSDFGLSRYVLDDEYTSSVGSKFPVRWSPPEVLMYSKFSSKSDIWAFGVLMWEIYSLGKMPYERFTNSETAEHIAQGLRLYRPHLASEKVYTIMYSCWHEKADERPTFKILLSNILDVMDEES

| Structure (SMILES) | BTK_I_binding pIC50 | IC50 (read-out: BTK_I_binding pIC50 (converted)) [nM] |
| --- | --- | --- |
| Cc1cc(Oc2ccccc2)ccc1N1C(=O)Nc2c(C(=O)N[C@@H]3CCCN(C(=O)/C=C/CN4CCCC4)C3)sc3nccc1c23 [Example 867, (R,E)-5-(2-Methyl-4-phenoxyphenyl)-4-oxo-N-(1-(4-(pyrrolidin-1-yl)but-2-enoyl)piperidin-3-yl)-4,5-dihydro-3H-1-thia-3,5,8-triazaacenaphthylene-2-carboxamide] | 7.3 | – |
| Cc1cc(Oc2ccccc2)ccc1N1C(=O)Nc2c(C(=O)N[C@@H]3CCN(C(=O)/C(C#N)=C/C(C)(C)C)C3)sc3nccc1c23 [Example 868, (R,E)-N-(1-(2-Cyano-4,4-dimethylpent-2-enoyl)pyrrolidin-3-yl)-5-(2-methyl-4-phenoxyphenyl)-4-oxo-4,5-dihydro-3H-1-thia-3,5,8-triazaacenaphthylene-2-carboxamide] | 7.3 | – |
| COc1ccccc1Oc1ccc(N2C(=O)Nc3c(C(=O)NC4CCCNC4)sc4nccc2c34)c(C)c1 (centres unmarked) [Example 870, 5-(4-(2-Methoxyphenoxy)-2-methylphenyl)-4-oxo-N-(piperidin-3-yl)-4,5-dihydro-3H-1-thia-3,5,8-triazaacenaphthylene-2-carboxamide] | 7.3 | – |
| CCC(=O)N1CCC[C@@H](NC(=O)c2sc3nccc4c3c2NC(=O)N4c2ccc(Oc3ccccc3)cc2C)C1 [Example 871, (R)-5-(2-Methyl-4-phenoxyphenyl)-4-oxo-N-(1-propionylpiperidin-3-yl)-4,5-dihydro-3H-1-thia-3,5,8-triazaacenaphthylene-2-carboxamide] | 7.3 | – |
| Cc1cc(Oc2ccccc2)ccc1N1C(=O)Nc2c(C(=O)NC3CCN(C#N)CC3)sc3nccc1c23 [Example 872, N-(1-Cyanopiperidin-4-yl)-5-(2-methyl-4-phenoxyphenyl)-4-oxo-4,5-dihydro-3H-1-thia-3,5,8-triazaacenaphthylene-2-carboxamide] | 7.2 | – |
| Cc1cc(Oc2ccccc2)ccc1N1C(=O)Nc2c(C(=O)N[C@@H]3CCCN(C)C3)sc3nccc1c23 [Example 873, (R)-5-(2-Methyl-4-phenoxyphenyl)-N-(1-methylpiperidin-3-yl)-4-oxo-4,5-dihydro-3H-1-thia-3,5,8-triazaacenaphthylene-2-carboxamide] | 6.9 | – |
| Cc1cc(Oc2ccccc2)ccc1N1C(=O)Nc2c(C(=O)N[C@@H]3CCCN(C(=O)[C@H]4CCCN4)C3)sc3nccc1c23 [Example 876, 5-(2-Methyl-4-phenoxyphenyl)-4-oxo-N—((R)-1-((R)-pyrrolidine-2-carbonyl)piperidin-3-yl)-4,5-dihydro-3H-1-thia-3,5,8-triazaacenaphthylene-2-carboxamide] | 7.1 | – |
| Cc1cc(Oc2ccccc2)ccc1N1C(=O)Nc2c(C(=O)NC3CCCN(C(=O)/C(C#N)=C/C4CC4)C3)sc3nccc1c23 (centres unmarked) [Example 877, (E)-N-(1-(2-Cyano-3-cyclopropylacryloyl)piperidin-3-yl)-5-(2-methyl-4-phenoxyphenyl)-4-oxo-4,5-dihydro-3H-1-thia-3,5,8-triazaacenaphthylene-2-carboxamide] | 7.1 | – |
| COc1ccc(N2C(=O)Nc3c(C(=O)NC4CCCN(C(=O)/C(C#N)=C/C5CC5)C4)sc4nccc2c34)c(C)c1 (centres unmarked) [Example 878, (E)-N-(1-(2-Cyano-3-cyclopropylacryloyl)piperidin-3-yl)-5-(4-methoxy-2-methylphenyl)-4-oxo-4,5-dihydro-3H-1-thia-3,5,8-triazaacenaphthylene-2-carboxamide] | 7.1 | – |
| Cc1cc(Oc2ccccc2)ccc1N1C(=O)Nc2c(C(=O)N[C@H]3CCCN(C=O)C3)sc3nccc1c23 [Example 879, (S)—N-(1-Formylpiperidin-3-yl)-5-(2-methyl-4-phenoxyphenyl)-4-oxo-4,5-dihydro-3H-1-thia-3,5,8-triazaacenaphthylene-2-carboxamide] | 7.1 | – |
| Cc1cc(Oc2ccccc2)ccc1N1C(=O)Nc2c(C(=O)N[C@@H]3CCCN(C(=O)/C(C#N)=C/C(C)(C)C)C3)sc3nccc1c23 [Example 880, (R,E)-N-(1-(2-Cyano-4,4-dimethylpent-2-enoyl)piperidin-3-yl)-5-(2-methyl-4-phenoxyphenyl)-4-oxo-4,5-dihydro-3H-1-thia-3,5,8-triazaacenaphthylene-2-carboxamide] | 7.1 | – |
| C=CC(=O)N1CC[C@@H](NC(=O)c2sc3nccc4c3c2NC(=O)N4c2ccc(Oc3ccccn3)cc2)C1 [Example 881, (R)—N-(1-Acryloylpyrrolidin-3-yl)-4-oxo-5-(4-(pyridin-2-yloxy)phenyl)-4,5-dihydro-3H-1-thia-3,5,8-triazaacenaphthylene-2-carboxamide] | 7.1 | – |
| Cc1cc(Oc2ccccc2)ccc1N1C(=O)Nc2c(C(=O)NC3CCCN(C(=O)CC#N)C3)sc3nccc1c23 (centres unmarked) [Example 882, N-(1-(2-Cyanoacetyl)piperidin-3-yl)-5-(2-methyl-4-phenoxyphenyl)-4-oxo-4,5-dihydro-3H-1-thia-3,5,8-triazaacenaphthylene-2-carboxamide] | 7.0 | – |
| Cc1cc(Oc2ccccc2)ccc1N1C(=O)Nc2c(C(=O)NC3CCCNC3)sc3nccc1c23 (centres unmarked) [Example 889, 5-(2-methyl-4-phenoxyphenyl)-4-oxo-N-(piperidin-3-yl)-4,5-dihydro-3H-1-thia-3,5,8-triazaacenaphthylene-2-carboxamide] | 7.0 | – |
| Cc1cc(Oc2ccccc2)ccc1N1C(=O)Nc2c(C(=O)N[C@H]3CCCN(C(=O)CC#N)C3)sc3nccc1c23 [Example 892, (S)—N-(1-(2-Cyanoacetyl)piperidin-3-yl)-5-(2-methyl-4-phenoxyphenyl)-4-oxo-4,5-dihydro-3H-1-thia-3,5,8-triazaacenaphthylene-2-carboxamide] | 7.0 | – |

Second part, the compound after the results:

| BTK_I_binding pIC50 | IC50 (read-out: BTK_I_binding pIC50 (converted)) [nM] | Structure (SMILES) |
| --- | --- | --- |
| 7.0 | – | COc1ccccc1Oc1ccc(N2C(=O)Nc3c(C(=O)NC4CCCN(C#N)C4)sc4nccc2c34)c(C)c1 (centres unmarked) [Example 883, N-(1-Cyanopiperidin-3-yl)-5-(4-(2-methoxyphenoxy)-2-methylphenyl)-4-oxo-4,5-dihydro-3H-1-thia-3,5,8-triazaacenaphthylene-2-carboxamide] |
| 7.0 | – | COc1ccccc1Oc1ccc(N2C(=O)Nc3c(C(=O)NC4CCN(C#N)CC4)sc4nccc2c34)c(C)c1 [Example 884, N-(1-Cyanopiperidin-4-yl)-5-(4-(2-methoxyphenoxy)-2-methylphenyl)-4-oxo-4,5-dihydro-3H-1-thia-3,5,8-triazaacenaphthylene-2-carboxamide] |
| 7.0 | – | Cc1cc(Oc2ccccc2)ccc1N1C(=O)Nc2c(C(=O)N[C@@H]3CCCN(C=O)C3)sc3nccc1c23 [Example 885, (R)—N-(1-Formylpiperidin-3-yl)-5-(2-methyl-4-phenoxyphenyl)-4-oxo-4,5-dihydro-3H-1-thia-3,5,8-triazaacenaphthylene-2-carboxamide] |
| 7.0 | – | Cc1ccccc1N1C(=O)Nc2c(C(=O)NC3CCCN(C(=O)/C(C#N)=C/C4CC4)C3)sc3nccc1c23 (centres unmarked) [Example 886, (E)-N-(1-(2-Cyano-3-cyclopropylacryloyl)piperidin-3-yl)-4-oxo-5-(o-tolyl)-4,5-dihydro-3H-1-thia-3,5,8-triazaacenaphthylene-2-carboxamide] |
| 7.0 | – | Cc1cc(Oc2ccccc2)ccc1N1C(=O)Nc2c(C(=O)N[C@H]3CCCN(C#N)C3)sc3nccc1c23 [Example 887, (S)—N-(1-Cyanopiperidin-3-yl)-5-(2-methyl-4-phenoxyphenyl)-4-oxo-4,5-dihydro-3H-1-thia-3,5,8-triazaacenaphthylene-2-carboxamide] |
| 7.0 | – | CC(=O)N1CC[C@@H](NC(=O)c2sc3nccc4c3c2NC(=O)N4c2ccc(Oc3ccccc3)cc2)C1 [Example 888, (R)—N-(1-Acetylpyrrolidin-3-yl)-4-oxo-5-(4-phenoxyphenyl)-4,5-dihydro-3H-1-thia-3,5,8-triazaacenaphthylene-2-carboxamide] |
| 7.0 | – | Cc1cc(Oc2ccccc2)ccc1N1C(=O)Nc2c(C(=O)NC3CCCN(C#N)C3)sc3nccc1c23 (centres unmarked) [Example 890, N-(1-Cyanopiperidin-3-yl)-5-(2-methyl-4-phenoxyphenyl)-4-oxo-4,5-dihydro-3H-1-thia-3,5,8-triazaacenaphthylene-2-carboxamide] |
| 7.0 | – | CCC(=O)N1CCC[C@H](NC(=O)c2sc3nccc4c3c2NC(=O)N4c2ccc(Oc3ccccc3)cc2C)C1 [Example 891, (S)-5-(2-Methyl-4-phenoxyphenyl)-4-oxo-N-(1-propionylpiperidin-3-yl)-4,5-dihydro-3H-1-thia-3,5,8-triazaacenaphthylene-2-carboxamide] |
| – | 100 | Cc1cc(Oc2ccccc2)ccc1N1C(=O)Nc2c(C(=O)N[C@@H]3CCCN(C(=O)[C@@H]4CCCN4)C3)sc3nccc1c23 [Example 893, 5-(2-Methyl-4-phenoxyphenyl)-4-oxo-N—((R)-1-((S)-pyrrolidine-2-carbonyl)piperidin-3-yl)-4,5-dihydro-3H-1-thia-3,5,8-triazaacenaphthylene-2-carboxamide] |
| 7.0 | – | C=CC(=O)N1CCC[C@@H](NC(=O)c2sc3nccc4c3c2NC(=O)N4c2ccc(Oc3cccc(COc4ccccc4C#N)c3)cc2C)C1 [Example 894, (R)—N-(1-Acryloylpiperidin-3-yl)-5-(4-(3-((2-cyanophenoxy)methyl)phenoxy)-2-methylphenyl)-4-oxo-4,5-dihydro-3H-1-thia-3,5,8-triazaacenaphthylene-2-carboxamide] |
| 7.0 | – | Cc1cc(C(=O)Nc2cc(C(F)(F)F)ccn2)ccc1N1C(=O)Nc2c(C(=O)N[C@H]3CCCN(C(=O)/C(C#N)=C/C4CC4)C3)sc3nccc1c23 [Example 895, (S,E)-N-(1-(2-Cyano-3-cyclopropylacryloyl)piperidin-3-yl)-5-(2-methyl-4-((4-(trifluoromethyl)pyridin-2-yl)carbamoyl)phenyl)-4-oxo-4,5-dihydro-3H-1-thia-3,5,8-triazaacenaphthylene-2-carboxamide] |
